The source of these data is patent publication US5227488A, “Aza spiro decane and use thereof in treating CNS disorders” (Novo Nordisk A/S, priority 1989, dated 1993).

One assay addresses T1, 5-HT1A (Rattus norvegicus, UniProt P19327).
T1 construct: from tissue; host or cells: rat brain: frontal cortex, hippocampus
T1 sequence (P19327 1-422): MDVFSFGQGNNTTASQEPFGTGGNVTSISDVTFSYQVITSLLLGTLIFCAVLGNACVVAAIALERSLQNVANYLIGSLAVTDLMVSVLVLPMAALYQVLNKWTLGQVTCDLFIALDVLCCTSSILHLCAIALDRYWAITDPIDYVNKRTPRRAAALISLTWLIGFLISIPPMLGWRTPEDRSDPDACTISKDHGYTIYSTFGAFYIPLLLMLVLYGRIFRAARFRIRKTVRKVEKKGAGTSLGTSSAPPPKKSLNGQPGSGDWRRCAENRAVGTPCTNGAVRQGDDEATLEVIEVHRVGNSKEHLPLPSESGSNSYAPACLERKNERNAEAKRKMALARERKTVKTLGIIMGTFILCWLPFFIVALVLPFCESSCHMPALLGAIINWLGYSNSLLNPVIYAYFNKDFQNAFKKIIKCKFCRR
Kind of assay: Receptor binding in vitro, 5-HT1A (3H-8OH-DPAT displacement). Conditions: ligand 3H-8OH-DPAT 2 nM; rat frontal cortex, hippocampus. Here is the method:
(§1) Compounds of the general formula (I) were tested for binding to 5-HT receptors and compared with known ligands by the following procedure:
(§2) Rat brain tissue (as specified in the table hereinafter) was homogenized using a Polytron homogenizer. The final pellet was resuspended in 125 vol (tissue wet weight) of buffer.
(§3) In all assays incubation was carried out for 10 min at 37° C.
(§4) Detailed conditions for the receptor binding assay in vitro are tabulated below.

For another assay, the target named is T2, 5-HT1B (Rattus norvegicus, UniProt P28564).
T2 construct: from tissue; host or cells: rat brain: frontal cortex, hippocampus
Kind of assay: Receptor binding in vitro, 5-HT1B (3H-5-HT displacement, with 50 nM 8-OH-DPAT). The protocol:
as §1, §2, §3
Labelling of the 5-HT1B receptor was complicated by the fact that the available ligand ^3 H-5-HT is nonselective.
as §4

The next assay has as its target T3, 5-HT2 (Rattus norvegicus, UniProt P14842).
T3 construct: from tissue; host or cells: rat brain: frontal cortex, striatum
Kind of assay: Receptor binding in vitro, 5-HT2 (3H-ketanserin displacement). Here is the method:
as §1, §2, §3, §4

The next assay concerns the target Adenylatcyclase. Put plainly: Adenylatcyclase. The class given is biochemical.
Another assay concerns 5-HT1A receptors. Conditions: background; cited from earlier work.
In a further assay the test system is 5-HT1 recognition sites. Conditions: background; Ann. Reports Med. Chem. 21 (1986), 42-43; cited from earlier work.
A further assay concerns 5-HT2 receptor subtype. Conditions: background; cited from earlier work.

Structures can show the parent of a compound that is named as a salt.

T3 sequence (P14842 whole entry): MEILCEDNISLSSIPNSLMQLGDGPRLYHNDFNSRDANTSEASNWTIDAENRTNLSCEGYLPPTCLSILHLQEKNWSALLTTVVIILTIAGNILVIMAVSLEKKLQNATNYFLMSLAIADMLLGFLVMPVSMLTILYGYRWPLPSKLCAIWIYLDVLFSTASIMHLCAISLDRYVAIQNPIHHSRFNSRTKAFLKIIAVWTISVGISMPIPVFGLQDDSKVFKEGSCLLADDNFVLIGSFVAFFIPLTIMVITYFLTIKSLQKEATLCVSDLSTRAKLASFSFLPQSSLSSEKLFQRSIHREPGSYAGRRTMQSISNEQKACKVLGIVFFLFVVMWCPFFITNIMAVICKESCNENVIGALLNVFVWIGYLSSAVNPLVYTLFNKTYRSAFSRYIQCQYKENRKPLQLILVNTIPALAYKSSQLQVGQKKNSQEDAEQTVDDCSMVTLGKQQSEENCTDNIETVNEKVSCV
T2 sequence (P28564 whole entry): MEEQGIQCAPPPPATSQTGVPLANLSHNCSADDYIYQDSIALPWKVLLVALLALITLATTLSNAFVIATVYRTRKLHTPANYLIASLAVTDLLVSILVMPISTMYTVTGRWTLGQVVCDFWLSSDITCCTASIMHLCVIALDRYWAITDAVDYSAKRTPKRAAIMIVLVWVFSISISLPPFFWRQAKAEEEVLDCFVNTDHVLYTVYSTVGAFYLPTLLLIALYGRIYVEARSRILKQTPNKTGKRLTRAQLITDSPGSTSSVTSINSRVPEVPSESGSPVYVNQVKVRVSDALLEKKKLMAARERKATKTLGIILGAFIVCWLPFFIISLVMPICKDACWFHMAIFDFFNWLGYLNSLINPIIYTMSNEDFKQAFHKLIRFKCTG

Take `O=C1CC2(CCCC2)CC(=O)N1CCCCNCCSc1c[nH]c2ccccc12` [Example 3, 1-(4-(7,9-Dioxo-8-azaspiro[4,5]decan-8-yl)butyl-1-amino)2-(3-indolylthio)-ethane, oxalate]: the IC50 (usually the concentration at which inhibition is half-maximal) on 5-HT1A stood at 0.04 µM; on 5-HT1B, 0.233 µM; at 5-HT2, 0.613 µM; against Adenylatcyclase, 0.01 µM.

Consider `O=C1c2ccccc2S(=O)(=O)N1CCCCNCCSc1c[nH]c2ccccc12` [Example 6, 1-(4-(o-Sulfobenzimido)butyl-1-amino)-2-(3-indolylthio)ethane, oxalate], for which the IC50 is 0.034 µM at 5-HT1A, greater than 1 µM at 5-HT1B, greater than 1 µM on 5-HT2 and 0.02 µM at Adenylatcyclase.

With `COc1ccc2[nH]cc(SCCNCCCCN3C(=O)CC4(CCCC4)CC3=O)c2c1` [Example 8, 1-(4-(7,9-Dioxo-8-azaspiro[4,5]decan-8-yl)butyl-1-amino)-2-(5-methoxy-3-indolylthio)-ethane, oxalate], the IC50 was 0.033 µM on 5-HT1A, greater than 1 µM on 5-HT1B, greater than 1 µM on 5-HT2 and 0.03 µM against Adenylatcyclase.

Regarding `CCCN(CCC)C1CCc2cccc(O)c2C1` (stereo not drawn) [Example 8-OH-DPAT, 8-hydroxy-2-(di-n-propylamino)tetralin, reference compound], the IC50 at 5-HT2 was greater than 1 µM; against Adenylatcyclase, 0.08 µM. The “affinity for 5-HT1A receptors (in words)” value with 5-HT1A receptors is recorded as “binds with high affinity”.

On to `COc1ccc2[nH]cc(SCCNCCCCN3C(=O)c4ccccc4C3=O)c2c1` [Example 9, 1-(4-Phthalimidobutyl-1-amino)-2-(5-methoxy-3-indolylthio)-ethane, oxalate], for which the IC50 was 0.02 µM on 5-HT1A, 0.156 µM on 5-HT1B, greater than 1 µM on 5-HT2 and 0.14 µM against Adenylatcyclase.

On to `COc1ccc2[nH]cc(SCCNCCCCN3C(=O)C4C5C=CC(C6CC56)C4C3=O)c2c1` (stereo not drawn) [Example 10], for which the IC50 was 0.008 µM at 5-HT1A, greater than 1 µM on 5-HT1B, greater than 1 µM on 5-HT2 and 0.023 µM at Adenylatcyclase.

With `COc1ccc2[nH]cc(SCCNCCCCN3C(=O)C4CC=CCC4C3=O)c2c1` (stereo not drawn) [Example 12, 1-(4-(Cis-4-cyclohexen-1,2-dicarboximido)butyl-1-amino)-2-(5-methoxy-3-indolylthio)-ethane, oxalate], the IC50 on 5-HT1A is 0.017 µM; on 5-HT1B, greater than 1 µM; on 5-HT2 it was greater than 1 µM; on Adenylatcyclase, 0.24 µM.

Turning to `COc1ccc2[nH]cc(OCCNCCCCN3C(=O)CC4(CCCC4)CC3=O)c2c1` [Example 23, 1-(4-(7,9-Dioxo-8-azaspiro[4,5]decan-8-yl)butyl-1-amino)-2-(5-methoxy-3-indolyloxy)-ethane, oxalate], the IC50 at 5-HT1A was 0.0006 µM; at 5-HT1B it was greater than 1 µM; on 5-HT2, greater than 1 µM; against Adenylatcyclase, 0.0018 µM.

For `COc1ccc2[nH]cc(OCCNCCCCN3C(=O)C4C5C=CC(C6C=CC65)C4C3=O)c2c1` (stereo not drawn) [Example 24, 1-(4-(1,3-Dioxo-4,7-etheno-1,3,3a,4,4a,6a,7,7a-octahydro-2H-cyclobut[f]isoindol-2-yl)butyl-1-amino)-2-(5-methoxy-3-indolyloxy)-ethane, oxalate], the IC50 on 5-HT1A is 0.0069 µM; at 5-HT1B, greater than 1 µM; on 5-HT2, greater than 1 µM; against Adenylatcyclase it was 0.004 µM.

With `COc1ccc2[nH]cc(C3=CCNCC3)c2c1` [RU 24969], in the assay on 5-HT1 recognition sites, the “affinity for 5-HT1 recognition sites (in words)” value is recorded as “high affinity”; the “discrimination between the 5-HT1A and 5-HT1B receptor subtypes (in words)” value is “only limited capacity to discriminate”.

With `O=C1CC2(CCCC2)CC(=O)N1CCCCN1CCN(c2ncccn2)CC1` [buspirone, reference compound], at Adenylatcyclase, the IC50 is 0.125 µM.

Consider `CC1(C)CC(=O)N(CCCCN2CCN(c3ncccn3)CC2)C(=O)C1` [gepirone, reference compound], for which the values for the IC50 at 5-HT2 and on Adenylatcyclase were greater than 1 µM and 1 µM, respectively.

In the case of `O=C1c2ccccc2S(=O)(=O)N1CCCCN1CCN(c2ncccn2)CC1` [ipsapirone, reference compound], the IC50 was 0.025 µM at 5-HT1A, greater than 1 µM on 5-HT1B, greater than 1 µM at 5-HT2 and 0.85 µM against Adenylatcyclase.

As for `O=C(c1ccc(F)cc1)C1CCN(CCn2c(=O)[nH]c3ccccc3c2=O)CC1` [ketanserin], in the assay on 5-HT2 receptor subtype, the “affinity for the 5-HT2 receptor subtype (in words)” value is recorded as “high affinity”.
